Test results as given in paper PMC11767451, “Novel Approaches to Monitor Pharmacokinetics and Metabolism of Gemcitabine-Ibandronate Conjugate in Mice and Dogs” (Molecules, 2025).
Read-outs that look alike come from different tables or passages of the source.

Experiments:
[1] = Proof-of-concept mouse PK study, plasma levels of GEM-IB and metabolites by HPLC-MS/MS; format: in vivo, mice; settings: for Cmax: analyte = parent or metabolite; for AUC: over the observation period
Method: Assay A (GEM-IB and IB): The extraction of calibration standards, quality control samples, and PK study samples was identical. Plasma, quality control stocks, and calibrator stocks were removed from the storage freezer and kept at room temperature until fully thawed. Aliquots of 100 μL of standards/quality control or blank sample were transferred into a 1.5 mL low-binding polypropylene vial with a conical bottom and snap-on lid. An amount of 10 µL of the of the internal standard solution (15 and 10 µg/mL of IB-D3 and ATP-IS, respectively) was added and mixed. For protein precipitation, 50 μL of methanol was added and then samples were vortexed for 10 min. This was followed by centrifugation at 25,000× g for ten minutes at 4 °C (Thermo Scientific MR 23i Centrifuge, Thermo Scientific, Waltham, MA, USA). To remove remaining protein, the supernatant was transferred to 10,000 molecular weight cut off (MWCO) centrifugal filters (800 µL volume, PES 10,000 with 2.0 mL receiver tubes, Analytical Sales and Services, Flanders, NJ, USA) and centrifuged again at 25,000× g for ten minutes at 4 °C. The filtrate was transferred into HPLC vials and placed into the HPLC autosampler maintained at 4 °C.
Assay B (GEMMP, GEM dFdUMP and dFdU): The extraction of calibration standards and quality control samples was identical to that of study samples. An amount of 200 µL of plasma sample was added to a 1.5 mL snap-top Eppendorf tube with 100 µL of protein precipitation solution. The samples were then vortexed for five minutes followed by centrifugation at 25,000× g for ten minutes at 4 °C. Hereafter, supernatants were transferred to 10K Amicon centrifugal filters (Merck-Millipore, Burlington, MA, USA) and centrifuged at the same settings for 60 min. The filtrates were then transferred into HPLC vials for analysis.
Assay A (GEM-IB and IB): Quantification of the analytes was carried out using high-performance liquid chromatography–tandem mass spectrometry (HPLC-MS/MS). Chromatography was performed using an Agilent 1260 Infinity II bio-inert HPLC system (Agilent Technologies, Santa Clara, CA, USA) on a Hypercarb Porous Graphitic Carbon HPLC column (3 µm, 2.1 × 50 mm, Thermo Scientific, Waltham, MA, USA). The HPLC system consisted of an Agilent 1260 Infinity II bio-inert quaternary pump, an Agilent 1260 Infinity II bio-inert column oven, and an Agilent 1260 Infinity II bio-inert autosampler (Agilent Technologies, Santa Clara, CA, USA). An amount of 10 µL of the sample extracts was injected. The column was maintained at 22 °C. HPLC-MS-grade water supplemented with 10 mM hexafluoroisopropanol (HFIP) and 0.05% (v/v) diethyl amine (DEA) at pH 9.4 was used for the aqueous mobile phase (Buffer A) and HPLC-grade acetonitrile was used for the organic mobile phase (Buffer B). The flow rate was set to 400 µL/min throughout the assay. The initial settings were 98% Buffer A and 2% organic Buffer B for the first two minutes. During the following 0.7 min, the organic Buffer B was increased to 30%. At minute 3.5, the gradient reached 98% Buffer B, which was kept for 0.5 min, and at minute 4.2 the column was re-equilibrated to starting conditions for 2.8 min until the next injection. The HPLC system was connected to a Sciex a 5500+ triple quadrupole mass spectrometer (SCIEX, Concord, ON, Canada) via a turbo electrospray ionization source (SCIEX) operated in the negative electrospray ionization (ESI) mode. Data were acquired in negative multiple reaction monitoring (MRM) mode and all compounds were detected as [M–H ]^−. The ion transitions used during the multiple reaction monitoring mode were m/z = 318→236, 321→239, 643→342, and 521→79 for IB, IB-D3, GEM-IB, and adenosine-^13C10,^15N5 5′-triphosphate (^13C10-^15N5-ATP), respectively. The dwell time for analysis was set to 50 ms. The curtain gas was kept at 20 psi and the ion source gas at 55 psi. The ion spray voltage was −4500 volts, and the temperature of the ion source was set to 400 °C. […]

[2] = Stability in dog plasma (accelerated, freeze-thaw, frozen PK samples); format: in vitro ADME; settings: for %-ACC, frozen PK sample stability: dog plasma PK samples re-extracted after 1.5 years at <−70 °C; for %-ACC (% accuracy vs nominal): 3 freeze-thaw cycles (<−70 °C / bench)
Method: For stability testing, QC samples were prepared by spiking plasma with QC stock solutions. These stability samples were stored for the predetermined time periods before extraction (accelerated stability and freeze–thaw stability) or after extraction (autosampler stability) and were run with freshly prepared calibrator standards. For accelerated stability, samples were stored at 4 °C and at room temperature for 4 h and 24 h prior to sample extraction. […] Assay A compounds (GEM-IB and IB) were also tested at 1 h and 2 h exposed to 4 °C and at room temperature to evaluate for which duration GEM-IB is stable.
Freeze–thaw cycle stability was assessed by storing the stability samples overnight in the freezer (<−70 °C) and thawing them the next day on the bench. Once thawed, samples were placed back into the freezer. This was carried out for three freeze–thaw cycles for all compounds.
To assess the stability of study samples, PK samples were re-extracted after storage at <−70 °C for 1.5 years (see Supplementary Table S4).
Method development and validation was conducted following applicable FDA guidelines for bioanalytical assays, as considered fit for purpose. Specificity. Endogenous interferences were excluded by analysis of blank plasma from 6 different individual lots of plasma. The lower limit of quantification (LLOQ) was determined as the lowest concentration consistently achieving an accuracy better than ±20% of the nominal concentration, with imprecision ≤20%. Predefined acceptance criteria. The performance of the assay was considered acceptable if intra- and inter-day imprecision (coefficient of variance, %CV) at each concentration was ≤15%, except at the LLOQ (≤20%). Intra- and inter-day accuracy had to be ±15% of the nominal value, except at the LLOQ (±20%). Calibration curves had to have a correlation coefficient (r) of 0.99 or better. Analytical recovery and imprecision. Intra- and inter-day analytical accuracy and imprecision were tested at least at four concentration levels depending on the LLOQ for each compound. Intra-day imprecision and accuracy were determined with n = 6 per QC level. Inter-day imprecision and accuracy were measured over 3 days, with six replicates for each QC concentration (n = 18). Extraction efficiency and matrix effect. Extraction efficiency for GEM-IB and metabolites was established by comparing the signals of the analytes after the extraction of QCs (n = 6/concentrations), with the signals of the extracted blank matrix spiked with the respective concentrations of analytes after the extraction procedure. The matrix effect was determined by comparing the analyte LC-MS/MS signal after spiking of the analyte into the extracted blank matrix (matrix from 6 different individual lots, analyte concentrations as for the QC samples) with the HPLC-MS/MS signal of the same amount of analyte in neat solution [25]. Carry-over. Carry-over was assessed by injecting blank buffer samples after analysis of the highest calibrators. Carry-over was considered insignificant if there was no signal at the relevant retention times exceeding 20% of the analyte signals at the LLOQ. Stability. QC samples were freshly prepared. One set was extracted and was analyzed immediately to determine baseline signals.

[3] = ip, after GEM-IB 5 mg/kg i.p., read-out: Tmax
[4] = mouse, plasma, ip, 5 mg/kg, after GEM-IB 5 mg/kg i.p., read-out: AUC
[5] = mouse, plasma, ip, 5 mg/kg, after GEM-IB 5 mg/kg i.p., read-out: T1/2 (converted)
[6] = mouse, plasma, ip, 5 mg/kg, after i.p. injection of GEM-IB 5 mg/kg, read-out: half-life
[7] = dog plasma, 2 hours 4°C (IB and GEM-IB, footnote)
[8] = dog plasma, 2 hours RT (IB and GEM-IB, footnote)

| SMILES | Rate Constant ([1]; after GEM-IB 5 mg/kg i.p.) | Cmax ([1]; ip, after GEM-IB 5 mg/kg i.p.) | %-ACC, frozen PK sample stability [2] | %-ACC (% accuracy vs nominal) ([2]; dog plasma) | %-ACC (percent mean accuracy vs nominal) ([2]; dog plasma, 4 hours 4°C) | %-ACC (percent mean accuracy vs nominal) ([2]; dog plasma, 4 hours RT) | %-ACC (percent mean accuracy vs nominal) ([2]; dog plasma, 24 hours 4°C) | %-ACC (percent mean accuracy vs nominal) ([2]; dog plasma, 24 hours RT) | Tmax [1, 3] | AUC [1, 4] | half-life [1, 5] | half-life [1, 6] | %-ACC (percent mean accuracy vs nominal) [2, 7] | %-ACC (percent mean accuracy vs nominal) [2, 8] | further results |
| --- | --- | --- | --- | --- | --- | --- | --- | --- | --- | --- | --- | --- | --- | --- | --- |
| Nc1ccn([C@@H]2O[C@H](CO)[C@@H](O)C2(F)F)c(=O)n1 [GEM, gemcitabine] | 1.5 h⁻¹ | 2.12 µg/mL | 90.4% ± 23.9 | 103.4% | 102.7% | 101.7% | 94.8% | 95.4% |  |  |  |  |  |  | T1/2 ([1]; after GEM-IB 5 mg/kg i.p.): 26.9 min; Tmax ([1]; after GEM-IB 5 mg/kg i.p.): 4.98 min |
| CCCCCN(C)CCC(O)(P(=O)(O)O)P(=O)(O)OP(=O)(O)OC[C@H]1O[C@@H](n2ccc(N)nc2=O)C(F)(F)[C@@H]1O (stereo partly drawn) [GEM-IB] | 5.0 h⁻¹ | 4.19 µg/mL |  | 84.7% |  |  | 83.6% | 13.7% | 4.98 min | 1.28 µg·h/mL | 8.28 min | 8 min | 99.3% | 83.5% | CL ([1]; after GEM-IB 5 mg/kg i.p.): 3.939 L/h/kg; Vdss ([1]; after GEM-IB 5 mg/kg i.p.): 0.469 L/kg; time stable on ice ([2]; dog plasma, on ice): up to 24 h |
| Nc1ccn([C@@H]2O[C@H](COP(=O)(O)O)[C@@H](O)C2(F)F)c(=O)n1 [GEMMP, gemcitabine-5′-phosphate] | 4.0 h⁻¹ | 1.31 µg/mL | failed the criteria | 92.4% | 89.5% | 98.2% | 88.1% | 98.2% | 4.98 min | 0.405 µg·h/mL | 10.3 min |  |  |  |  |
| CCCCCN(C)CCC(O)(P(=O)(O)O)P(=O)(O)O [IB, ibandronate] | 2.6 h⁻¹ | 22.8 µg/mL |  | 106.5% |  |  | 108.8% | 118.5% | 4.98 min | 10.7 µg·h/mL | 16.1 min | 16 min | 99.3% | 101.0% | accelerated stability, result in words ([2]; dog plasma, up to 24 h at 4 °C / on ice and room temperature): stable |
| O=c1ccn([C@@H]2O[C@H](CO)[C@@H](O)C2(F)F)c(=O)[nH]1 [dFdU, 2′,2′-difluoro-2′-deoxyuridine] | 0.4 h⁻¹ | 0.832 µg/mL | failed the criteria | 109.5% | 100.5% | 101.3% | 105.3% | 98.4% | 60 min |  | 108 min |  |  |  |  |
| O=c1ccn([C@@H]2O[C@H](COP(=O)(O)O)[C@@H](O)C2(F)F)c(=O)[nH]1 [dFdUMP, 2′,2′-difluoro-2′-deoxyuridine-5′-phosphate] | 11.1 h⁻¹ | 0.13 µg/mL | failed the criteria | 87.7% | 84.2% | 86.7% | 85.2% | 80.5% | 4.98 min |  | 3.78 min |  |  |  | AUC ([1]; after GEM-IB 5 mg/kg i.p.): 0.038 µg·h/mL; AUC ([1]; after GEM-IB 5 mg/kg i.p., listed as dFdU-MP): 3.389 µg·h/mL |
